Experimental data taken from ChEMBL document CHEMBL3046866, “Microwave-assisted synthesis and evaluation of anti-inflammatory activity of new series of N-substituted 2-butyl-5-chloro-3H-imidazole-4-carbaldehyde derivatives” (2009).

Test system: Rattus norvegicus
Assay: Anti-inflammatory activity in Rattus norvegicus albino (rat) assessed as inhibition of carrageenan-induced paw edema at 100 mg/kg, po administered 1 to 3 hr prior challenge
Format: functional

Row | Compound | inhibition in vivo at 100 mg/kg [%]
1 | CCCCc1nc(Cl)c(C=O)n1Cc1cc2c(cc1C)OCO2 | 26
2 | CCCCc1nc(Cl)c(C=O)n1CC(=O)c1ccccc1 | 26
3 | CCCCc1nc(Cl)c(C=O)n1CC(=O)c1ccc(Cl)cc1 | 28
4 | CC(C)Cc1ccc(C(C)C(=O)O)cc1 (centres undefined) [IBUPROFEN] | 49
